Entries after “also recorded” stand apart in the source; their conditions may differ.

What is called inhibition is the share of the control response that was lost under treatment.

Experiment [1] has as its system p53-Lys382-acetylation in U2OS cells. Description: p53 acetylation after ultraviolet exposure, western blot. The format is cell-based. To be noted: 1 h pretreatment, 20 J cm^-2 UV, further 6 h. On the procedure: U2OS cells (ATCC accession no. HTB-96) were seeded and cultured until they reached 90% confluency. […] Cells were incubated for an additional 6 h in the presence of the inhibitor and then lysed in IPLS (50 mM Tris/HCl, 150 mM NaCl; 0.5 mM EDTA; 0.5% (v/v) NP-40; 1 × Complete Protease Inhibitors (Roche), pH 8.0) and resuspended in 1 × Laemmli Buffer. Samples were then separated on SDS–PAGE, transferred to a nitrocellulose membrane (Bio-Rad), blocked with non-fat dry milk (Roth, 5% (w/v), TBS, 0.1% (v/v) Tween 20) and probed with anti-acetyl-p53 K382 (Cell Signaling, #2522), anti-p53 DO.1 (Santa Cruz Biotechnology, sc-126) and anti-vinculin (Cell Signaling, #4650) as a loading control. Uncropped blots are shown in the Supplementary Fig. 10.
A general note: Immunoblotting shows a protein as a band on a membrane.

Experiment [2] relates to mitochondrial lysine-acetylation in HEK293 cells. The experiment is described as follows: mitochondrial protein acetylation, western blot of mitochondrial extracts. Type of experiment: cell-based. The conditions noted are these: 16 h. On the procedure: page 27: Cell cultiva tion. HEK-293 cells (ATCC accession no. CRL-1573) were grown in Dulbecco's modified Eagle's medium (DMEM, PAA) containing 10% (vol/vol) fetal calf serum (FCS, PAA), 1% (vol/vol) penicillin (PAA), 1% (vol/vol) streptomycin (PAA), 1% (vol/vol), L- glutamine (PAA) at 37 °C in a 5% (vol/vol) CO2 atmosphere. Mitochondrial extra ction. HEK-293 cells (ATCC accession no. CRL-1573) were treated with nicotinamide or […]2 at the indicated concentrations for 16 h. Cells were washed in PBS and lysed in 5 packed cell volumes of lysis buffer (20 mM HEPES/KOH, 250 mM sucrose; 10 mM KCl, 1.5 mM MgCl2, 1 mM EDTA, 1 mM EGTA, 1 mM DTT; 0.1 mM PMSF, 1uComplete Protease Inhibitor Cocktail (Roche), pH 7.5). Cells were then homogenized in a Dounce homogenizer and 10% (vol/vol) of sample was removed for use as whole cell extract (WCE). To the remaining lysate, unbroken cells and nuclei were removed by centrifugation (10 min, 800g). The supernatant was transferred and centrifuged (10 min, 7,000g) to pellet mitochondria. Mitochondria were washed twice in lysis buffer, repeating centrifugation after each wash, followed by resuspending washed mitochondria in lysis buffer. […] Lysates were cleared by centrifugation, protein concentrations were quantitated and normalized with 1u Laemmli Buffer. […]

Experiment [3] addresses T1, human Sirt6 (Homo sapiens, UniProt Q8N6T7).
T1 construct: human Sirt6_13–308 (Uniprot: Q8N6T7); made in house
The experiment is described as follows: HPLC-based assay, non-labelled myristoyl-lysine peptide. Type of experiment: biochemical. To be noted: myristoyl-lysine substrate.

For experiment [4], the target named is T2, human Sirt2 (Homo sapiens, UniProt Q8IXJ6).
T2 sequence (Q8IXJ6 25-389): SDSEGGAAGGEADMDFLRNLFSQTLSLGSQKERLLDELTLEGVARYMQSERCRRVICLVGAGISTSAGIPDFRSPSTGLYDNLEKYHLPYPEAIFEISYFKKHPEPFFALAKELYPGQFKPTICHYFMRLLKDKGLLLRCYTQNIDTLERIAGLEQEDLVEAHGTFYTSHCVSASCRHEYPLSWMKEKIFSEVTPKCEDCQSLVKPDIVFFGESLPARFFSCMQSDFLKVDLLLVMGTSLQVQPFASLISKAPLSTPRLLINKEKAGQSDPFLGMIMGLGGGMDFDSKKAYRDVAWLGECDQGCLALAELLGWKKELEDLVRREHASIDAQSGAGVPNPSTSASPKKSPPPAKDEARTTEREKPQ
The experiment is described as follows: HPLC-based conversion assay, non-labelled acetyl-lysine α-tubulin peptide. The conditions noted are these: SirReal2 100 μM, non-labelled acetyl-lysine oligopeptide.

Experiment [5] addresses T3, KDAC1 (Homo sapiens, UniProt Q13547).
T3 construct: purchased Enzo Life Sciences
Description: in vitro KDAC1/6 assay, substrate ZMAL. The format is biochemical. How it is done:
5 times), Fmoc deprotection and amino acid coupling were repeated until the last amino acid was coupled and the Fmoc group was removed. The resin was washed with dichloromethane (DCM, 3 min, 5 times), methanol (5 min, 3 times) and DCM (3 min, 5 times). […]
acid (TFA) at RT (1 h, 2 times). Cleaved peptide was precipitated with cold diethylether, filtrated and dried. The peptide was purified by semi-preparative HPLC (Merck-Hitachi High Speed LC system) using a Merck Hibar LiChrosorb RP-8 column (250–25 mm, 7 μm). For separation a linear gradient from 20–50% (vol/vol) acetonitrile (ACN) with 0.1% (vol/vol) TFA in 60 min was applied (flow-rate: 8 ml min-1). […]
high-throughput fluorescence-based assay using the substrate ZMAL (Z-Lys(Acetyl)- […]
A solution that contained DMSO was used a negative
The reaction was started through the addition of KDAC1 (Enzo Life Sciences, 10 μL) or […]
initial state conditions the substrate conversion was adjusted to 10–30% prior to inhibition tests. The reaction was stopped by the addition of a solution containing trypsin and TSA […]
Then fluorescence intensity of the released fluorophore of the deacetylated lysine derivative was measured in a microplate […]
reader (BMG Polarstar, Oex 390 nm, Oem 460 nm). The amount of inhibition was determined with respect to the mixture with only DMSO.
Immunocytochemistry equipment and settings. […]

T1 sequence (Q8N6T7 13-308): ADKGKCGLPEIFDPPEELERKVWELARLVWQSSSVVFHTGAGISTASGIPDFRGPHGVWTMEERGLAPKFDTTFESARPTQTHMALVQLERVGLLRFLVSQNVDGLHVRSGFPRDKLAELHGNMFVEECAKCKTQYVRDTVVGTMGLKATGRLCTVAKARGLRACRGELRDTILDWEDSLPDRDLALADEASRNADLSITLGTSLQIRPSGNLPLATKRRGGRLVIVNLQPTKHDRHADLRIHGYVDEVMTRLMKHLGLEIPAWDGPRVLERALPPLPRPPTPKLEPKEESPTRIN
T3 sequence (Q13547 whole entry): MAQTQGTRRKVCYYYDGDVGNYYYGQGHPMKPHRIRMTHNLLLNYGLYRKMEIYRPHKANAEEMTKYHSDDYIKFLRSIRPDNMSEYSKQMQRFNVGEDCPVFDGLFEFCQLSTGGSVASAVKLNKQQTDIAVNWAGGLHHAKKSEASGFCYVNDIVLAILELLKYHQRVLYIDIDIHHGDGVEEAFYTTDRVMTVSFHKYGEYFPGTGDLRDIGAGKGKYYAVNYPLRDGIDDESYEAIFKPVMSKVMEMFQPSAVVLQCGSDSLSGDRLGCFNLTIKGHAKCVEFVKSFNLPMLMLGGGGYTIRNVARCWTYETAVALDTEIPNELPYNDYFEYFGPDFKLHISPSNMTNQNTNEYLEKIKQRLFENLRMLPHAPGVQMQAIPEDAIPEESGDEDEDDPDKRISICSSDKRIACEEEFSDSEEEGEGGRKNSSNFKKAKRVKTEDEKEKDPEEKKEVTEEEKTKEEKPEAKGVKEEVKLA

As for `Cc1cc(C)nc(SCC(=O)Nc2ncc(Cc3cccc4ccccc34)s2)n1` [SirReal2], in experiment [1], the “acetylation of p53 (Lys382) after ultraviolet exposure” value is recorded as “does not affect; also recorded: did not observe an increase; also recorded: does not alter”. Further, the “acetylation of mitochondrial proteins” value in experiment [2] is “does not alter”. Further, in experiment [3], the inhibition at 200 µM is 19%. The “activity of Sirt2” value in experiment [4] is recorded as “substantially reduced”. The “activity of KDAC1” value in experiment [5] was “does not affect”.
